Patent US20230030607A1, “Novel oxygen pulse therapy method for treating COVID19 and viral, bacterial, fungal or parasitic respiratory and other diseases” (priority 2021, published 2023)
Values joined by “and” are separate entries in the source; they are usually repeats but may differ in a detail not shown here. Equal entries are not always repeated.

Key:
COVID-19 [1] = conditions: in vivo; cited from earlier work
COVID-19 [2] = conditions: hospitalized patients; cited from earlier work
SARS-CoV-2 [3] = test system: SARS-CoV-2
SARS-CoV-2 [4] = conditions: human, in vivo

## CCN(CCO)CCCC(C)Nc1ccnc2cc(Cl)ccc12 (stereo not shown) [hydroxychloroquine]
COVID-19 [1]
  benefit for treatment of COVID-19: not been shown to offer any benefit
COVID-19 [2]
  effect on 28-day mortality or the in-hospital course of COVID-19: little or no effect

## O=O [oxygen]
SARS-CoV-2 [3]; elders, adults and children, most of them immune depressed patients
  use of the therapy in respiratory diseases including SARS-COVID19 infections: satisfactory used
SARS-CoV-2 [3]; human, in vivo
  new infection for COVID 19 at follow-up: no new infection for COVID 19 has developed
  time to recovery: 5 days and 3 days
SARS-CoV-2 [4]
  infection for COVID 19 at follow-up: no infection for COVID 19 has been developed

## lopinavir/ritonavir
COVID-19 [2]
  effect on 28-day mortality or the in-hospital course of COVID-19: little or no effect
